Source: US20240366624A1, “METHODS AND COMPOSITIONS FOR TREATING THROMBOTIC DISEASE” (Washington University, priority 2023, published 2024)

Columns and labels:
ERO1α = biological target: T1, ERO1α (Homo sapiens, UniProt Q96HE7); test: ERO1α activity assay; assay type: biochemical
T1 sequence (Q96HE7 24-468): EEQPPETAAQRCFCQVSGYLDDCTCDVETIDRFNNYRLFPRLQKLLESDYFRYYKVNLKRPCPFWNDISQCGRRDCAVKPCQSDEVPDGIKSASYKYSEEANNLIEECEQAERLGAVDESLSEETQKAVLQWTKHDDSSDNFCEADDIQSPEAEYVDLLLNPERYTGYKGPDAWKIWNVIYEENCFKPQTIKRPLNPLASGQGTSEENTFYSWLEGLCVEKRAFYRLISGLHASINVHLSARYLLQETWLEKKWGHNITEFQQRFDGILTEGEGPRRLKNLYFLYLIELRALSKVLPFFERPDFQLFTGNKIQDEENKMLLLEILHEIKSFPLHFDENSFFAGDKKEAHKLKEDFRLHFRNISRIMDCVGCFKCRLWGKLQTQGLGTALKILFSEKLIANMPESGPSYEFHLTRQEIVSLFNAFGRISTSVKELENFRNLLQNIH
Source text: (§1) FIG. 17(A-F) is an exemplary embodiment of identification of novel ERO1α inhibitors by high throughput screening in accordance with the present disclosure. FIG. 17A: A scheme of an ERO1α activity assay. FIG. 17B: Screening of chemical libraries in the ERO1α activity assay. FIG. 17C: The inhibitory effect of selected compounds on ERO1α activity. FIG. 17D: The inhibitory effect of selected compounds on PDI activity. FIG. 17E: The inhibitory effect of selected compounds on H2O2 activity. FIG. 17F: The inhibitory effect of selected compounds on thiol-reacting activity. The data represent the mean±SD (n=3). *P<0.05, **P<0.01, ***P<0.001, and ****P<0.0001 vs. vehicle control, Student's t-test.
(§2) To identify a novel ERO1α inhibitor, 5800 compounds were screened using an ERO1α activity assay (FIG. 17A and FIG. 17B). […] The selected compounds were further tested in assays measuring PDI, antioxidant, and thiol-reacting activities (FIG. 17D through FIG. 17F). […] B12 inhibited P-selectin exposure and αIIbβ3 activation in agonist-activated mouse and human platelets in a concentration-dependent manner (FIG. 18B through FIG. 18E).

PDI = PDI (Homo sapiens, UniProt P07237); test: PDI activity assay; assay type: biochemical
PDI, sequence (P07237 18-508, species assumed): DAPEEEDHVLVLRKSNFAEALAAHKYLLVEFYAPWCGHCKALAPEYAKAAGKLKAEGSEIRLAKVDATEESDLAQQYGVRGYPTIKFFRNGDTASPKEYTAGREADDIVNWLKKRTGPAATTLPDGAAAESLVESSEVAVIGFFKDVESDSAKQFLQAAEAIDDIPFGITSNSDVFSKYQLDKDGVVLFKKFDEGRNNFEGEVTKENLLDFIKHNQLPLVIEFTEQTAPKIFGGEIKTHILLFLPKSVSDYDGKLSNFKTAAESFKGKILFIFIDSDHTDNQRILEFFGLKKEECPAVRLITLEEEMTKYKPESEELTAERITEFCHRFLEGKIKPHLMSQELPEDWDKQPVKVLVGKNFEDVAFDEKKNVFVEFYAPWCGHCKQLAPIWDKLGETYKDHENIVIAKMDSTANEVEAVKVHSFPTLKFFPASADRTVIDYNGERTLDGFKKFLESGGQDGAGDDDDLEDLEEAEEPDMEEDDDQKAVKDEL
Source text: as §1, §2

[1] = H2O2 (antioxidant) activity assay; assay type: biochemical
Source text: as §1, §2

[2] = thiol-reacting (GSH) activity assay; assay type: biochemical
Source text: as §1, §2

[3] = biological target: T2, MAO-A (monoamine oxidase A) (Homo sapiens, UniProt P21397); test: MAO-A activity assay; assay type: biochemical
T2 sequence (P21397 1-527): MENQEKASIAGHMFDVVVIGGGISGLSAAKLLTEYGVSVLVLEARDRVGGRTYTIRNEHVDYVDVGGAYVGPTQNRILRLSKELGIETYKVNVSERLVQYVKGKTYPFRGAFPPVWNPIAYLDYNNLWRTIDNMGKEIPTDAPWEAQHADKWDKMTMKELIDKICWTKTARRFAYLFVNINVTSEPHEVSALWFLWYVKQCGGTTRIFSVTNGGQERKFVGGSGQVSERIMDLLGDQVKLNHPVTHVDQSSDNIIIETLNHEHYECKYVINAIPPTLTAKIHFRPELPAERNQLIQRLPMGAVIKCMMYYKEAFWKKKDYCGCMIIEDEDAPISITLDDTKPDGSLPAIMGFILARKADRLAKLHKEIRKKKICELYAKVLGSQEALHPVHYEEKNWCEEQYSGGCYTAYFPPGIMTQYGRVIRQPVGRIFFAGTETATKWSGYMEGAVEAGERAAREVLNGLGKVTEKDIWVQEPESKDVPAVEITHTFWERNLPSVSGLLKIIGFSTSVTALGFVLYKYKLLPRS

mouse platelets = test: Flow cytometry of P-selectin exposure and αIIbβ3 integrin activation, mouse platelets; assay type: cell-based; settings: agonist-activated mouse platelets, concentration-dependent
Procedure: FIG. 10(A-E) is an exemplary embodiment of 15E9 not affecting platelet activation and aggregation in accordance with the present disclosure. Mouse platelets were treated with 0.02-0.03 (FIG. 10A P-selectin, FIG. 10B aIIbβ3) or 0.025 U/ml thrombin (FIG. 10C) in the presence of 10 μg/ml mouse IgG2a (IgG2a) or a blocking anti-ERO1α antibody (15E9). Flow cytometry (FIG. 10(A-B)) and aggregation (FIG. 10C) assays were performed. FIG. 10D: Human platelets were treated with 0.025 U/ml thrombin in the presence of mouse IgG2a (mIgG2a) or 10 μg/ml 15E9 and 16B6, followed by measuring aggregation. […] P values determined by unpaired Student's t-test (vs. mIgG1).
FIG. 18(A-R) is an exemplary embodiment of novel small-molecule inhibitors recapitulating the defect in Ero1α (endoplasmic reticulum oxidoreductase 1a)-null platelets in accordance with the present disclosure. […] After incubation with a different concentration of B12-5, the specific interaction between B12-5 and ERO1α was measured by subtracting the nonspecific binding. The KD value was calculated from the Kon and Koff values. […] P values determined by ANOVA and Dunnett test (FIG. 18(B-E), FIG. 18(1-L), and FIG. 18(O-R) [for B12-5]) or Student t test (FIG. 18M, FIG. 18N, and FIG. 18(O-R) [for BAPTA (1,2-bis(o-aminophenoxy)ethane-N,N,N′,N′-tetraacetic acid)]). […]

human platelets = test: Flow cytometry of P-selectin exposure and αIIbβ3 integrin activation, human platelets; assay type: cell-based; settings: agonist-activated human platelets, concentration-dependent
Source text: FIG. 18(A-R) is an exemplary embodiment of novel small-molecule inhibitors recapitulating the defect in Ero1α (endoplasmic reticulum oxidoreductase 1a)-null platelets in accordance with the present disclosure. FIG. 18A: The structure of B12 and its inhibitory effect on ERO1α activity. FIG. 18(B-E): The inhibitory effect of B12 on P-selectin exposure and αIIbβ3 integrin activation in (FIG. 18B and FIG. 18C) mouse and (FIG. 18D and FIG. 18E) human platelets. FIG. 18F: The structure of B12-5 and its inhibitory effect on ERO1α activity. FIG. 18G: A docking model of B12-5-ERO1α (3AHQ) and flavin adenine dinucleotide (FAD)-ERO1α complex. There are pi-sulfur interactions of the phenothiazine head group (B112-5) or a tricyclic ring (FAD) with Met389 and Cys397. Also, there are H bond interactions between the tail/alkyl group and His255, Asn259, and Arg287. […] After incubation with a different concentration of B12-5, the specific interaction between B12-5 and ERO1α was measured by subtracting the nonspecific binding. The KD value was calculated from the Kon and Koff values. […] P values determined by ANOVA and Dunnett test (FIG. 18(B-E), FIG. 18(1-L), and FIG. 18(O-R) [for B12-5]) or Student t test (FIG. 18M, FIG. 18N, and FIG. 18(O-R) [for BAPTA (1,2-bis(o-aminophenoxy)ethane-N,N,N′,N′-tetraacetic acid)]). […]

**Q.** For `O=C(CSc1nc(O)c2nc[nH]c2n1)N1c2ccccc2Sc2ccccc21` [B12], which inhibition at 20 µM (ERO1α) is on record?
**A.** Its inhibition at 20 µM is 72.9 ± 12%.

**Q.** And the IC50 (ERO1α; read-out: IC50, ERO1α activity)?
**A.** Its IC50 is 12.4 µM.

**Q.** And the inhibition at 100 µM (PDI)?
**A.** The inhibition at 100 µM was 4.8 ± 1%.

**Q.** What about the “effect on PDI activity” value (PDI; at or up to 100 μM) of the same compound?
**A.** The value was “without affecting”.

**Q.** What about the “H2O2 inhibition at 100 μM (%)” value ([1]; 100 μM) of the same compound?
**A.** Its value is 4.7 ± 1%.

**Q.** And the “effect on H2O2 (antioxidant) activity” value ([1]; at or up to 100 μM)?
**A.** The value was “without affecting”.

**Q.** What about the “GSH inhibition at 100 μM (%)” value ([2]; 100 μM) of the same compound?
**A.** Its value is 5.1 ± 2%.

**Q.** What about the “effect on thiol-reacting activity” value ([2]; at or up to 100 μM) of the same compound?
**A.** The value was “without affecting”.

**Q.** And the inhibition at 100 µM [3]?
**A.** The inhibition at 100 µM was 25.3 ± 5%.

**Q.** And the “P-selectin exposure and αIIbβ3 activation” value (mouse platelets)?
**A.** Its value is “inhibited”.

**Q.** What about the “P-selectin exposure and αIIbβ3 activation” value (human platelets) of the same compound?
**A.** Its value is “inhibited”.
